Reference: patent US6403594B1, “Benzopyran derivatives” (Recordati, S.A. Chemical and Pharmaceutical Company, priority 1999, dated 2002)
Read-outs that look alike come from different tables or passages of the source.

Experiments:
[1] = system: diastolic blood pressure; conditions: anaesthetised dogs, i.v.; data from Leonardi et al. 1997; cited from earlier work
[2] = system: prostatic urethral pressure increase induced by noradrenaline; conditions: anaesthetised dogs, i.v.; data from Leonardi et al. 1997; cited from earlier work
[3] = target: T1, α1a-adrenoceptor (recombinant) (Homo sapiens, UniProt P35348); test: Radioligand binding, cloned α1a-adrenoceptor ([3H]prazosin); conditions: read-out: Affinity for recombinant α1a-adrenoceptor, cloned receptors (Ki)
T1 construct: expressed in transfected cells
T1 sequence (P35348 1-466): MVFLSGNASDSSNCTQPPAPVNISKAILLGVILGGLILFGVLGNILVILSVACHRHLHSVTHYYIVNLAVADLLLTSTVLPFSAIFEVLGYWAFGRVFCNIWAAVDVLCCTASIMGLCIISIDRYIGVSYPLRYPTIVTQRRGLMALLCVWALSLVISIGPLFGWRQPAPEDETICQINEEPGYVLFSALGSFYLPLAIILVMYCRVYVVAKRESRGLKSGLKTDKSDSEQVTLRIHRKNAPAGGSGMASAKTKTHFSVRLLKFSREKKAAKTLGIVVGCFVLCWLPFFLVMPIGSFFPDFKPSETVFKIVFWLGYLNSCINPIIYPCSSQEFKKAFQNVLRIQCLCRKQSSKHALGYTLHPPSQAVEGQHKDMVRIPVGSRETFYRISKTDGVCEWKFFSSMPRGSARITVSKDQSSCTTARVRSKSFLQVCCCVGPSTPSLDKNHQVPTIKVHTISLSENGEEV
Protocol: (§1) Determination of affinity for cloned subtypes of α1-adrenoceptor subtypes was performed in membranes from cells transfected by electroporation with DNA expressing the genes encoding each α1-adrenoceptor subtype.
(§2) Non-specific binding was determined in the presence of 10 μM phentolamine.
(§3) Incubation was stopped by addition of ice-cold Tris buffer and rapid filtration through 0.2% polyethyleneimine-pretreated Schleicher & Schuell GF52 filters.
(§4) Data were expressed as mean Ki.

[4] = target: T2, α1b-adrenoceptor (recombinant) (Homo sapiens, UniProt P35368); test: Radioligand binding, cloned α1b-adrenoceptor ([3H]prazosin); conditions: read-out: Affinity for recombinant α1b-adrenoceptor, cloned receptors (Ki)
T2 construct: expressed in transfected cells
T2 sequence (P35368 1-520): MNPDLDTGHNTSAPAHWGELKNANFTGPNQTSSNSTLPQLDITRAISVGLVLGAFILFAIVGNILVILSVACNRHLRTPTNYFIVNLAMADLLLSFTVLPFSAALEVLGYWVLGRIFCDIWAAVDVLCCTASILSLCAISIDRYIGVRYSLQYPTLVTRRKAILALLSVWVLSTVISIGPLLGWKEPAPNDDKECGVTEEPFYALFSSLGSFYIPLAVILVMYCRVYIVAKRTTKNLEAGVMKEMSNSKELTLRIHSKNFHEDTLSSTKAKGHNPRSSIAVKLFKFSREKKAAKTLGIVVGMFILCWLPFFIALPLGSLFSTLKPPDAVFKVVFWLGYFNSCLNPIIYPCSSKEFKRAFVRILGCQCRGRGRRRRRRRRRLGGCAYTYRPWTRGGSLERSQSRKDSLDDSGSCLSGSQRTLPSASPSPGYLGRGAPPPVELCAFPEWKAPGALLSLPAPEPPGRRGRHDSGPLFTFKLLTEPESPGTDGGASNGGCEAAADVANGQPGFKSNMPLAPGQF
Protocol: as §1, §2, §3, §4

[5] = system: diastolic blood pressure; test: Lowering of diastolic blood pressure in anaesthetised dogs after i.v. administration; format: in vivo, dog
Protocol: (§5) The experiments were performed according to the method of Imagawa J. et al., J. Pharmacol. Methods 22: 103-111, 1989, with substantial modifications, as follows: adult male beagle dogs, weighing 8-10 kg, were anaesthetised with pentobarbital sodium (30 mg/kg i.v. and 2 mg/kg/h i.v.), intubated and spontaneously ventilated with room air. In order to monitor systemic blood pressure (BP), a polyethylene (PE) catheter was introduced into the aortic arch through the left femoral artery. A collateral of the left femoral vein was cannulated for infusion of anaesthetic, and the right femoral vein was cannulated for administration of compounds. For intra-arterial (i.a.) injection of noradrenaline (NA), a PE catheter was introduced into the lower portion of the abdominal aorta via the right external iliac artery. Through such procedure, NA was selectively distributed to the lower urinary tract. A paramedian vertical suprapubic incision extending from the base of the pelvis to the mid-abdominal region was made and the bladder and prostate were exposed. The bladder was manually emptied with a syringe. Prostatic urethral pressure was monitored with a Mikro-tip catheter (5F) introduced into the bladder via the external urethral meatus, and withdrawn until the pressure transducer was positioned in the prostatic region of the urethra. A ligature was secured between the neck of the bladder and urethra to isolate the response of the latter and to avoid any interaction with the bladder. Another ligature was put around the Mikro-tip catheter at the external meatus, to secure the catheter itself. After a stabilising period following the surgical procedure (30 minutes), in which arterial and prostatic urethral pressure were continuously monitored as basal values, i.a. administration of NA was made at intervals of 20 minutes. The doses of NA chosen were such to produce an increase of at least 100% in urethral pressure. The test compounds were administered i.v. in a cumulative manner with intervals of 15-20 minutes between administrations. I.a. injections of NA were repeated 5 minutes after every dosing of test compound with intervals of about 10 minutes between stimulations. In order to compare the effects of the administered compound, dose/response curves (log dose transformation) were constructed by computing, at the peak effect, the percent decrease in diastolic blood pressure and the percent inhibition of the increase in urethral pressure induced by NA.

[6] = target: T3, 5HT1A-serotoninergic receptor (Homo sapiens, UniProt P08908); test: Radioligand binding, cloned 5-HT1A-serotoninergic receptor in HeLa membranes ([3H]8-OH-DPAT); design: expressed in transfected cells; host or cells: HeLa; conditions: cloned human 5-HT1A receptor in HeLa membranes, mean Ki, read-out: Affinity for 5-HT1A receptor, cloned receptors (Ki)
T3 sequence (P08908 1-422): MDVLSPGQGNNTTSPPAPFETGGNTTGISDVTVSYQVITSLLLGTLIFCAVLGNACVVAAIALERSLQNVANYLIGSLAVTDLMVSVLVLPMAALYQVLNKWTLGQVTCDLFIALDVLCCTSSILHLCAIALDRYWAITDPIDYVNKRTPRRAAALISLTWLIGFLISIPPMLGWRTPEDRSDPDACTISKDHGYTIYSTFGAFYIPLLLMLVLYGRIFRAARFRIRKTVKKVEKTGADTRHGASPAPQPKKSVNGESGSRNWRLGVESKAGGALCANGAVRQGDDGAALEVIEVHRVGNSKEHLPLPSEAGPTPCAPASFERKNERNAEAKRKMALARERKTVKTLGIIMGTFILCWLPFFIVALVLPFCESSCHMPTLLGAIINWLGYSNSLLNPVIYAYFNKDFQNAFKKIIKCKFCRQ
Protocol: HeLa cells were grown as monolayers in Dulbecco's Modified Eagle medium (DMEM) supplemented with 10% foetal calf serum and gentamicin (100 μg/mL), 5% CO2, at 37° C. The cells were detached from the growth flask at 95% confluence by a cell scraper and were lysed in ice-cold Tris-5-mM and EDTA-5-mM buffer (pH 7.4). The homogenates were centrifuged at 40000×g×20 minutes and the membranes were resuspended in a small volume of ice-cold buffer containing Tris 5 mM and EDTA 5 mM (pH 7.4), and immediately frozen and stored at −70° C. until use.
Non-specific binding was determined in the presence of 10 μM 5-HT. The incubation was stopped by addition of ice-cold Tris buffer and rapid filtration through 0.2% polyethyleneimine-pretreated Schleicher & Schuell filters.
as §4

[7] = system: prostatic urethral pressure increase induced by noradrenaline; test: Inhibition of urethral contractions induced by noradrenaline in anaesthetised dogs after i.v. administration; format: in vivo, dog; conditions: for UC ID50: active dose inhibiting by 50% the urethral contractions induced by noradrenaline: i.v. administration; for DBP/UC ratio between the active doses: i.v., DBP ED25 / UC ID50
Protocol: as §5

[8] = target: T4, α1d-adrenoceptor (recombinant) (Homo sapiens, UniProt P25100); test: Radioligand binding, cloned α1d-adrenoceptor ([3H]prazosin); conditions: read-out: Affinity for recombinant α1d-adrenoceptor, cloned receptors (Ki)
T4 sequence (P25100 1-572): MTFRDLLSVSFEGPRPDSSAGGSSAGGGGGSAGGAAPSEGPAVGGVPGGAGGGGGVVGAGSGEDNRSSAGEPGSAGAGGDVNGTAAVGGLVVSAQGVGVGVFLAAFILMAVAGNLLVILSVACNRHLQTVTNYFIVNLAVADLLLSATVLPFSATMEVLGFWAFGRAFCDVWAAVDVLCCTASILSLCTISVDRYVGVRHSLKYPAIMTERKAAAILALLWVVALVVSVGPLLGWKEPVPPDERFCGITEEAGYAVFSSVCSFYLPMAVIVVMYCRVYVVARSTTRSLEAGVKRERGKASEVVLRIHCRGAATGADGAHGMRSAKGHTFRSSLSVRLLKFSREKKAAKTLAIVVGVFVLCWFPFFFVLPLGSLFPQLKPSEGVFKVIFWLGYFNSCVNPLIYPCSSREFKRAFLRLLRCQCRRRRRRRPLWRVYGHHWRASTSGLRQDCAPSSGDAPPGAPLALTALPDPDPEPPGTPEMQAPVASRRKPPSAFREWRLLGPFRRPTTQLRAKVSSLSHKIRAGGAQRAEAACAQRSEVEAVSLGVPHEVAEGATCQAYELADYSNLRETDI
Protocol: as §1, §2, §3, §4

[9] = system: α1-adrenergic receptor; conditions: background statement; cited from earlier work
[10] = target: T3, 5HT1A-serotoninergic receptor; conditions: background statement; cited from earlier work

Row | Structure (SMILES) | DBP ED25: active dose lowering diastolic blood pressure by 25% [1] | UC ID50: active dose inhibiting by 50% the urethral contractions induced by noradrenaline [2] | Ki [3] | Ki [4] | DBP ED25: active dose lowering diastolic blood pressure by 25% [5] | Ki [6] | UC ID50: active dose inhibiting by 50% the urethral contractions induced by noradrenaline [7] | Ki [8] | DBP/UC ratio between the active doses [7] | Affinity for the α1-adrenergic receptor [9] | Affinity for the 5HT1A-serotoninergic receptor [10]
1 | COc1ccccc1N1CCN(CCCNC(=O)c2cccc3c(=O)c(C)c(-c4ccccc4)oc23)CC1 [Compound A] | 0.243 mg/kg | 0.0024 mg/kg |  |  |  |  |  |  |  |  | 
2 | Cc1c(-c2ccccc2)oc2c(C(=O)NCCCN3CCN(c4ccccc4OCC(F)(F)F)CC3)cccc2c1=O [Example 15, 8-<3-{4-[2-(2,2,2-Trifluoroethoxy)phenyl]-1-piperazinyl}propylcarbamoyl>-3-methyl-4-oxo-2-phenyl-4H-1-benzopyran] |  |  | 0.07 nM | 6 nM | 3.001 mg/kg | 0.71 nM | 0.0049 mg/kg | 3.38 nM |  |  | 
3 | COc1ccc(C#N)cc1N1CCN(CCCNC(=O)c2cccc3c(=O)c(C)c(-c4ccccc4)oc23)CC1 [Example 18, 8-{3-[4-(5-Cyano-2-methoxyphenyl)-1-piperazinyl]propylcarbamoyl}-3-methyl-4-oxo-2-phenyl-4H-1-benzopyran] |  |  | 4.18 nM | 100 nM | 1.2976 mg/kg | 677 nM | 0.0341 mg/kg | 45.4 nM | 38.05 |  | 
4 | Cc1c(-c2ccccc2)oc2c(C(=O)NCCCN3CCN(c4cc(Cl)ccc4OCC(F)(F)F)CC3)cccc2c1=O [Example 22, 8-<3-{4-[5-Chloro-2-(2,2,2-trifluoroethoxy)phenyl]-1-piperazinyl}-propylcarbamoyl>-3-methyl-4-oxo-2-phenyl-4H-1-benzopyran] |  |  | 0.25 nM | 1.9 nM | 1.266 mg/kg |  | 0.0195 mg/kg | 3.07 nM | 64.92 |  | 
5 | Cc1c(-c2ccccc2)oc2c(C(=O)OCCN3CCCCC3)cccc2c1=O [Flavoxate, 3-methyl-4-oxo-2-phenyl-8-(2,N-piperidinylethoxycarbonyl)-4H-1-benzopyran] |  |  |  |  |  |  |  |  |  | practically devoid of affinity | practically devoid of affinity
6 | CCOc1ccccc1OCCN[C@H](C)Cc1ccc(OC)c(S(N)(=O)=O)c1 [tamsulosin] |  |  |  |  |  |  |  |  |  |  | comparable affinity
